Counter-ions that a name gives are not always drawn. Like-named read-outs stand apart in the source and are kept apart here.
Tests used:
physchem = conditions: for half-life / Half-Life in Neutral Water at 100° C.: buffer; for hydrolysis rate / reaction rate (comparison in words): deionized water
Experimental: In the following examples, various ester hydrolysis reactions were run in the presence of calcium carbonate (CaCO3) to simulate the consumption of filter cake material. The acid evolved in each reaction was measured per unit of time. The acid generated upon hydrolysis was rapidly consumed in a secondary reaction that produced carbon dioxide (CO2). The half-life was secured when half of the CaCO3 was consumed. That is, using PV=nRT, the amount of CaCO3 that would yield approximately 1 liter of CO2 was calculated to be about 4.47 grams. We doubled the amount of CaCO3 (8.94 grams) for the reactions and then calculated the half-life based on the yield of 1 liter of CO2. Unless otherwise specified, all half-life quotations are actually the time required for 4.47 grams of CaCO3 to be consumed.
The following general procedure was used in each of the examples. The closed system reactor shown in FIG. 1 was used to measure the amount of CO2 gas that evolved in each reaction. Water or brine was added to a boiling flask 10, which was heated to 100° C. […] Once the liquid was boiling, a weighed amount of ester was added to flask 10. The amount of ester employed was always in ratio to the water or to the make-up water used to formulate the brine except where commercially available brines were used. Following addition of the ester to the boiling liquid, a reflux condenser 12 was affixed to flask 10. The top of condenser 12 was fixed with an adapter 14 to an inlet tube 18 in a 2-hole rubber stopper 16. The inlet tube 18 was passed through stopper 16, providing a seal. An outlet tube 22 was run from the bottom of a flask 20 to a 1,000 mL graduated cylinder 24. The flask 20 was charged with XP-07 base oil, commercially available from Halliburton Energy Services, Inc. The outlet tube 22 served the purpose of discharging the oil into graduated cylinder 24. The hydrolysis reaction produced acid in flask 10 that reacted with the CaCO3 to produce CO2 gas. The gas displaced the oil in flask 20 into graduated cylinder 24. The rate of CO2 evolution thus could be monitored visually by reading of the amount of oil in graduated cylinder 24 per unit of time.
Solutions containing various esters of lactic acid and of glycerol (i.e., monoacetin, ethyl lactate, triacetin, tripropionin), butyl formate (a control), and BDF-325 diethyleneglycol diformate (a control) in neutral water were prepared and combined with a molar ratio of CaCO3. Hydrolysis reactions were then carried out using the resulting solutions at 100° C. The hydrolysis reactions were monitored, and the half-lives of the esters were compared. The volume of oil displaced by the CO2 gas is plotted as a function of time in FIG. 2. […] The butyl formate to CaCO3 molar ratio was doubled for comparison purposes.
Solutions containing 10 volume % monoacetin, diacetin, and triacetin in deionized water were prepared and combined with a molar ratio of CaCO3. Hydrolysis reactions were then carried out using the resulting solutions at 100° C. The hydrolysis reactions were monitored, and the half-lives of the esters were compared. The volume of oil displaced by the CO2 gas is plotted as a function of time in FIG. 3.

Solubility in water = assay type: physicochemical
[1] = at 100° C.; cited from earlier work
[2] = Half-Life in Neutral Water at 100° C.
[3] = hydrolysis in neutral water at 100° C.

Row | SMILES | half-life (physchem; [2]) | hydrolysis rate / reaction rate (comparison in words) (physchem; 100° C.) | Pseudo First Order Rate Constant (physchem; [3]) | other results
1 | COC(=O)C(C)O (centres unmarked) [Methyl lactate] | 2.71 h | – | 2.1 × 10^−5 sec.^−1 | –
2 | CC(=O)OCC(COC(C)=O)OC(C)=O [Triacetin] | 2.73 h | very similar | 7.04 × 10^−5 sec.^−1 | –
3 | CCC(=O)OCC(COC(=O)CC)OC(=O)CC [Tripropionin] | – | – | – | Pseudo First Order Rate Constant (physchem): 1.05 × 10^−5 sec.^−1; Half-Life in Neutral Water at 100° C. (physchem): 32,344.83 seconds
4 | CC(=O)O [acetic acid] | – | – | – | strength of the acid (pH) [1]: 4.76
5 | CCCCOC=O [butyl formate, reference compound] | – | slow reaction rate | – | solubility in water (Solubility in water): poor solubility
6 | O=COCCOCCOC=O [diethyleneglycol diformate, reference compound] | – | – | – | half-life (physchem; half-life): 0.3 to 0.333 h

Now from value to compound, other results behind:

Row | half-life (physchem; [2]) | hydrolysis rate / reaction rate (comparison in words) (physchem; 100° C.) | Pseudo First Order Rate Constant (physchem; [3]) | SMILES | other results
8 | 21.3 h | faster than that of the butyl formate | 9.03 × 10^−6 sec.^−1 | CCCCOC(=O)C(C)O (centres unmarked) [Butyl lactate] | solubility in water (Solubility in water): slightly soluble
9 | – | very similar | 4.75 × 10^−5 sec.^−1 | CC(=O)OCC(O)COC(C)=O [Diacetin] | Half-Life in Neutral Water at 100° C. (physchem): 14,600 seconds
10 | 8.71 h | – | 2.2 × 10^−5 sec.^−1 | CCOC(=O)C(C)O (centres unmarked) [Ethyl Lactate] | hydrolysis in deionized water and various brines (physchem; 10 volume % in deionized water and various brines, 100° C.): performed consistently; half-life (physchem; half-life): 10 to 11 h
11 | – | – | 1.8 × 10^−5 sec.^−1 | CC(=O)OCC(O)CO (centres unmarked) [Monoacetin] | half-life versus targeted range (greater than 10 hours at 100° C. desired) (physchem; 10 volume % in deionized water, 100° C.): within the targeted range; consumed more slowly relative to the other two acetins (physchem; 10 volume % in deionized water, 100° C., vs triacetin and diacetin): 4-5 times; Half-Life in Neutral Water at 100° C. (physchem): 38,400 seconds
12 | 25.8 h | – | 7.4 × 10^−6 sec.^−1 | CCCOC(=O)C(C)O (centres unmarked) [Propyl lactate] | –

Reference: patent US20070173416A1, “Well treatment compositions for use in acidizing a well” (Halliburton Energy Services, Inc., priority 2006, published 2007)
